Experimental data taken from US12673954B2 (BRISTOL-MYERS SQUIBB COMPANY, priority 2021, dated 2026).
Where two headings read alike, the source gives them in different places.

What was measured:
[1] = test system: IRF pathway, THP1-Dual™ cells; experiment: STING reporter assay in THP1-Dual cells, IRF pathway (Lucia luciferase, QUANTI-Luc); type: cell-based, human; conditions: THP1-Dual cells, 10% human plasma, 20 hours, Lucia luciferase, 100% activation = 100 μM cGAMP, read-out: IRF (EC50 μM)
From the text: (§1) THP1-Dual™ cells were derived from the human THP-1 monocyte cell line by stable integration of two inducible reporter constructs. To this end, THP1-Dual™ cells allow the simultaneous study of the NF-κB pathway, by monitoring the activity of SEAP, and the IRF pathway by assessing the activity of a secreted luciferase (Lucia). Both reporter proteins are readily measurable in the cell culture supernatant when using QUANTI-Blue™, a SEAP detection reagent, and QUANTI-Luc™, a luciferase detection reagent.
(§2) THP1-Dual™ cells induce the activation of NF-κB in response to STING agonists. They also trigger the IRF pathway upon stimulation with STING agonists, such as cGAMP. Here, the THP-1-Dual cells were used to assess STING specific binders for function on the cellular level.
(§3) Serial dilutions of compounds in DMSO were added to low volume 384 well plates at 100 nl/well using an ECHO acoustic dispenser (Labcyte, model 550) to achieve final starting concentration of 100 μM in cell suspension. […] One column of the plate was reserved for treatment with cGAMP at 100 μM for 100% activation calculation and one column for no treatment (DMSO only) for baseline activation. Plates were then incubated in 37° C. incubator at 5% CO2 for 20 hours.
(§4) Plates were read on the Envision (Perkin Elmer) at 620 nm wavelength (OD620). In the luciferase assay, 5 μl of Quantiluc (Invivogen, Rep-qlc2) is added to white 384 well plates seeded with THP1 cells and read at 5 minutes on the Envision (Perkin Elmer) using a luminescence protocol (RLU). 100% activation was determined by value (RLU) of THP-1 Dual STING cells stimulated with 100 μM cGAMP (Invivogen, cat #TLRL-NACGA23-5).

[2] = test system: NF-κB pathway, THP1-Dual™ cells; experiment: STING reporter assay in THP1-Dual cells, NF-κB pathway (SEAP, QUANTI-Blue); type: cell-based, human; conditions: THP1-Dual cells, 10% human plasma, 20 hours, SEAP, 100% activation = 100 μM cGAMP, read-out: NFkB (EC50 μM)
From the text: as §1, §2, §3, §4

EC50 ([1]; Homo sapiens, THP1-Dual, 20 h) | EC50 ([2]; Homo sapiens, THP1-Dual, 20 h) | EC50 [2] | EC50 [1] | SMILES
1.6 µM | 1.9 µM |  |  | O=C(OC1CCCC1)c1cc(Cl)cc2cc(CNC(=O)c3cnn4cccnc34)oc12 [EXAMPLE 243, Cyclopentyl 5-chloro-2-((pyrazolo[1,5-a]pyrimidine-3-carboxamido)methyl)benzofuran-7-carboxylate]
22 µM | 27 µM |  |  | COC(=O)c1cc(Cl)cc2cc(CNC(=O)c3cc(N)ccn3)oc12 [Example 53, Methyl 2-((4-aminopicolinamido)methyl)-5-chlorobenzofuran-7-carboxylate]
0.4 µM | 0.3 µM |  |  | Cc1cc(C(=O)OCC(F)(F)F)c2oc(CNC(=O)c3cnn4cccnc34)cc2c1 [EXAMPLE 377, 2,2,2-Trifluoroethyl 5-methyl-2-((pyrazolo[1,5-a]pyrimidine-3-carboxamido)methyl)benzofuran-7-carboxylate]
0.75 µM |  | 0.7 µM |  | CCOC(OC(=O)c1cc(F)cc2cc(CNC(=O)c3cnn4cccnc34)oc12)C(F)F (single isomer, unassigned) [EXAMPLE 323, 1-Ethoxy-2,2-difluoroethyl 5-fluoro-2-((pyrazolo[1,5-a]pyrimidine-3-carboxamido)methyl)benzofuran-7-carboxylate]
1.3 µM | 1.1 µM |  |  | CSC(=O)c1cc(F)cc2cc(CNC(=O)c3cnn4cccnc34)oc12 [EXAMPLE 382, S-Methyl 5-fluoro-2-((pyrazolo[1,5-a]pyrimidine-3-carboxamido)methyl)benzofuran-7-carbothioate]
 |  | 4.5 µM | 4.3 µM | CC(OC(=O)c1cc(F)cc2cc(CNC(=O)c3cnn4cccnc34)oc12)C(F)(F)F (single isomer, unassigned) [EXAMPLE 318, 1,1,1-Trifluoropropan-2-yl 5-fluoro-2-((pyrazolo[1,5-a]pyrimidine-3-carboxamido)methyl)benzofuran-7-carboxylate]
25 µM | 23 µM |  |  | COC(=O)c1cc(O)cc2cc(CN3CCc4ccncc4C3=O)oc12 [EXAMPLE 103, Methyl 5-hydroxy-2-((1-oxo-3,4-dihydro-2,7-naphthyridin-2(1H)-yl)methyl)benzofuran-7-carboxylate]
9 µM | 13 µM |  |  | CC(C)(C)OC(=O)N1CC(OC(=O)c2cc(Cl)cc3cc(CNC(=O)c4cnn5cccnc45)oc23)C1 [EXAMPLE 247, Tert-butyl 3-((5-chloro-2-((pyrazolo[1,5-a]pyrimidine-3-carboxamido)methyl)benzofuran-7-carbonyl)oxy)azetidine-1-carboxylate]
2.9 µM | 3.1 µM |  |  | COC(=O)c1cccc2c(Cl)c(CN3CCc4ccncc4C3=O)oc12 [EXAMPLE 21, Methyl 3-chloro-2-((1-oxo-3,4-dihydro-2,7-naphthyridin-2(1H)-yl)methyl)benzofuran-7-carboxylate]
0.25 µM | 0.35 µM |  |  | O=C(OC(CF)CF)c1cc(F)cc2c(Cl)c(CNC(=O)c3cnn4cccnc34)oc12 [EXAMPLE 290, 1,3-Difluoropropan-2-yl 3-chloro-5-fluoro-2-((pyrazolo[1,5-a]pyrimidine-3-carboxamido)methyl)benzofuran-7-carboxylate]
0.7 µM | 0.75 µM |  |  | Cc1cc(C(=O)OC(C)C)c2oc(CNC(=O)c3cnn4cccnc34)cc2c1 [EXAMPLE 273, Isopropyl 5-methyl-2-((pyrazolo[1,5-a]pyrimidine-3-carboxamido)methyl)-benzofuran-7-carboxylate]
0.3 µM | 0.37 µM |  |  | COC(=O)c1cc(C)cc2c(Cl)c(CNC(=O)c3cncc4cccnc34)oc12 [EXAMPLE 118, methyl 2-((1,6-naphthyridine-8-carboxamido)methyl)-3-chloro-5-methylbenzofuran-7-carboxylate]
0.2 µM | 0.28 µM |  |  | COC(=O)c1cc(C)cc2c(Cl)c(CNC(=O)c3cnn4cccnc34)oc12 [EXAMPLE 117, Methyl 3-chloro-5-methyl-2-((pyrazolo[1,5-a]pyrimidine-3-carboxamido)methyl)benzofuran-7-carboxylate]
0.21 µM | 0.19 µM |  |  | COC(=O)c1cc(C)cc2cc(CNC(=O)c3cnn4cccnc34)oc12 [Example 89, Methyl 5-methyl-2-((pyrazolo[1,5-a]pyrimidine-3-carboxamido)methyl)benzofuran-7-carboxylate]
11 µM | 10 µM |  |  | COC(=O)Cc1cc(C)cc2cc(CNC(=O)c3cnn4cccnc34)oc12 [Example 98, Methyl 2-(5-methyl-2-((pyrazolo[1,5-a]pyrimidine-3-carboxamido)methyl)benzofuran-7-yl)acetate]
 |  | 1.3 µM | 1.4 µM | CC(OC(=O)c1cc(F)cc2cc(CNC(=O)c3cnn4cccnc34)oc12)C(F)(F)F (single isomer, unassigned) [EXAMPLE 317, 1,1,1-Trifluoropropan-2-yl 5-fluoro-2-((pyrazolo[1,5-a]pyrimidine-3-carboxamido)methyl)benzofuran-7-carboxylate]
5.7 µM | 3.6 µM |  |  | COc1cc(C(=O)OC(C)C(F)(F)F)c2oc(CNC(=O)c3cnn4cccnc34)cc2c1 (single isomer, unassigned) [EXAMPLE 345, 1,1,1-Trifluoropropan-2-yl 5-methoxy-2-((pyrazolo[1,5-a]pyrimidine-3-carboxamido)methyl)benzofuran-7-carboxylate]
 |  | 0.89 µM | 0.88 µM | CC(OC(=O)c1cc(Cl)cc2cc(CNC(=O)c3cnn4cccnc34)oc12)C(F)(F)F (single isomer, unassigned) [EXAMPLE 329, 1,1,1-Trifluoropropan-2-yl 5-chloro-2-((pyrazolo[1,5-a]pyrimidine-3-carboxamido)methyl)benzofuran-7-carboxylate]
2.8 µM | 3.4 µM |  |  | Cc1ccc(C(=O)OCC(F)(F)F)c2oc(Cn3cnc4ccncc4c3=O)cc12 [EXAMPLE 360]
2 µM | 1.8 µM |  |  | COC(=O)c1ccc(F)c2cc(CNC(=O)c3cnn4cccnc34)oc12 [EXAMPLE 23, methyl 4-fluoro-2-((pyrazolo[1,5-a]pyrimidine-3-carboxamido)methyl)-benzofuran-7-carboxylate]
0.93 µM | 1 µM |  |  | O=C(OCC(F)(F)C(F)(F)CO)c1cc(Cl)cc2cc(CNC(=O)c3cnn4cccnc34)oc12 [EXAMPLE 251, 2,2,3,3-Tetrafluoro-4-hydroxybutyl 5-chloro-2-((pyrazolo[1,5-a]pyrimidine-3-carboxamido)methyl)benzofuran-7-carboxylate]
3.3 µM | 2.3 µM |  |  | COC(OC(=O)c1cc(C#N)cc2cc(CNC(=O)c3cnn4cccnc34)oc12)C(F)(F)F (single isomer, unassigned) [EXAMPLE 347, 2,2,2-Trifluoro-1-methoxyethyl 5-cyano-2-((pyrazolo[1,5-a]pyrimidine-3-carboxamido)methyl)benzofuran-7-carboxylate]
0.6 µM | 0.67 µM |  |  | COC(=O)c1cccc2c(Cl)c(CNC(=O)c3cnn4cccnc34)oc12 [EXAMPLE 22, Methyl 3-chloro-2-((pyrazolo[1,5-a]pyrimidine-3-carboxamido)methyl)benzofuran-7-carboxylate]
 |  | 7.2 µM | 6.1 µM | CC(OC(=O)c1ccc(F)c2cc(CNC(=O)c3cnn4cccnc34)oc12)C(F)(F)F (single isomer, unassigned) [EXAMPLE 309, 1,1,1-Trifluoropropan-2-yl 4-fluoro-2-((pyrazolo[1,5-a]pyrimidine-3-carboxamido)methyl)benzofuran-7-carboxylate]
2.5 µM | 3 µM |  |  | COC(=O)c1cc(OC)cc2cc(CNC(=O)c3cnn4cccnc34)oc12 [EXAMPLE 102, Methyl 5-methoxy-2-((pyrazolo[1,5-a]pyrimidine-3-carboxamido)methyl)benzofuran-7-carboxylate]
32 µM | 41 µM |  |  | O=C(OCC(F)(F)F)c1cccc2cc(CN3Cc4ccncc4C3=O)oc12 [EXAMPLE 204, 2,2,2-Trifluoroethyl 2-((3-oxo-1,3-dihydro-2H-pyrrolo[3,4-c]pyridin-2-yl)methyl)benzofuran-7-carboxylate]
4.4 µM | 3.8 µM |  |  | C[C@H](NC(=O)c1cnn2cccnc12)c1oc2c(C(=O)O[C@H](C)C(F)(F)F)cc(F)cc2c1Cl [EXAMPLE 293, (R)-1,1,1-Trifluoropropan-2-yl 3-chloro-5-fluoro-2-((S)-1-(pyrazolo[1,5-a]pyrimidine-3-carboxamido)ethyl)benzofuran-7-carboxylate]
